In ChEMBL document CHEMBL1144793, “Synthesis and characterization of 1,3-dihydro-benzo[b][1,4]diazepin-2-one derivatives: Part 3. New potent non-competitive metabotropic glutamate receptor 2/3 antagonists” (Bioorg Med Chem Lett, 2008):
pIC50: −log10 of the molar value. Activity calls are given as the source filed them. The rule behind the calls is not given here.

Columns and labels:
[1] = molecular target: T1, Metabotropic glutamate receptor 2 (Rattus norvegicus, UniProt P31421); assay: Displacement of [3H]LY354740 from rat mGluR2
T1 sequence (P31421 whole entry): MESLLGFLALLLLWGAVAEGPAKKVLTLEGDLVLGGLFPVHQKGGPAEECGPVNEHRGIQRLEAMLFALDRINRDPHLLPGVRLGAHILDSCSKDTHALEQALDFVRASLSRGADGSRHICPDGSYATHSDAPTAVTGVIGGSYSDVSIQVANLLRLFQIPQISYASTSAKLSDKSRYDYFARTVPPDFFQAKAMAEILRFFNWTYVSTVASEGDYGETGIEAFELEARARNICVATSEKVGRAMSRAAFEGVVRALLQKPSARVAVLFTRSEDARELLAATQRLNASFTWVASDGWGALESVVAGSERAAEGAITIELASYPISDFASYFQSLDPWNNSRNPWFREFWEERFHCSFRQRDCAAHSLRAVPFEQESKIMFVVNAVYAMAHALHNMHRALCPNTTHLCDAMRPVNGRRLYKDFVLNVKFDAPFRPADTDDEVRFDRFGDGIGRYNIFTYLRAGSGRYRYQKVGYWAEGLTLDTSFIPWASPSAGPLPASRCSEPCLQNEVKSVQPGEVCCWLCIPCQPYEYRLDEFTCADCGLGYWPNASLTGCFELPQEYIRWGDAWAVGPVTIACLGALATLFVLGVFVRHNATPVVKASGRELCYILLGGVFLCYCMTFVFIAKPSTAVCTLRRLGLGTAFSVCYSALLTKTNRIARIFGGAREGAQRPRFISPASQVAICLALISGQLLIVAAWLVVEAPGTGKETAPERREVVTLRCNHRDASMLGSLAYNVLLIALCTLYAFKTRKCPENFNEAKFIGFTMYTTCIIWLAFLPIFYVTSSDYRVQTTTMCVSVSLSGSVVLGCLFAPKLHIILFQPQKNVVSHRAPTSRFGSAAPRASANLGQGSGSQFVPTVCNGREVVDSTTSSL

[2] = molecular target: T1, Metabotropic glutamate receptor 2; assay: Antagonist activity at rat mGluR2 assessed as blockade of (1S,3R)-ACPD-induced inhibition of forskolin-stimulated cAMP production; type: functional
[3] = molecular target: T1, Metabotropic glutamate receptor 2; assay: Antagonist activity at rat mGluR2 expressed in CHO cells assessed as inhibition of glutamta-induced GIRK current; type: functional, cell-based
[4] = molecular target: Metabotropic glutamate receptor 3 (Rattus norvegicus, UniProt P31422); assay: Antagonist activity at rat mGluR3 expressed in CHO cells assessed as inhibition of glutamate-induced GIRK current; type: functional, cell-based
Sequence of Metabotropic glutamate receptor 3 (P31422 whole entry): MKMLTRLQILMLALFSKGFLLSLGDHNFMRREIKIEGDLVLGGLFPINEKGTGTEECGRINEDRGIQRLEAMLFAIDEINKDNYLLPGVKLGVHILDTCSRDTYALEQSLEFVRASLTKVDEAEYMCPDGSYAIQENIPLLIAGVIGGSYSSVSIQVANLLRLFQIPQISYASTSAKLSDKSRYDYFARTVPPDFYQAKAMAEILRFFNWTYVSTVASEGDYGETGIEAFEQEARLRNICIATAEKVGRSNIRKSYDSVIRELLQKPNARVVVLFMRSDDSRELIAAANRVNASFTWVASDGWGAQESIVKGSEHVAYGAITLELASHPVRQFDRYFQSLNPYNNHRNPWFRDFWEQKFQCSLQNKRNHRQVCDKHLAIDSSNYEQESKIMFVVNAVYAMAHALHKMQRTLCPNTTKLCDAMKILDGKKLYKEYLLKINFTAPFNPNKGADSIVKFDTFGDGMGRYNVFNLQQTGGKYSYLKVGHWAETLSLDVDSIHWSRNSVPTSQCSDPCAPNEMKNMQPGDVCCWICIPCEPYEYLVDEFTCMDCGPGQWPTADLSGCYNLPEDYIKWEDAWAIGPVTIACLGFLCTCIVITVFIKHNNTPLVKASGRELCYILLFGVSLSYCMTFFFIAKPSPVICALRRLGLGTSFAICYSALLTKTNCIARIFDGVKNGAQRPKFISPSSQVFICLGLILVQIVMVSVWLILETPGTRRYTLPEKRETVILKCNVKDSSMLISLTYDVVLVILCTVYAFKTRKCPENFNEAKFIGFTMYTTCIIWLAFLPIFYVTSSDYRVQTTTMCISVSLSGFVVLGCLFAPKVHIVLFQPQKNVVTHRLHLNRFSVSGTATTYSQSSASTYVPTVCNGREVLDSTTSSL

[5] = Binding affinity to ionotropic glutamate receptor
[6] = Binding affinity to GABAA receptor
[7] = Plasma concentration in rat at 10 mg/kg, po after 1.5 hrs; type: ADME, organism-based; set-up: dose 10 mg/kg, route oral
[8] = Drug level in rat brain at 10 mg/kg, po after 1.5 hrs; type: ADME, organism-based; set-up: dose 10 mg/kg, route oral; details: read-out: Drug uptake
[9] = Ratio of drug level in brain to plasma at 10 mg/kg, po after 1.5 hrs; type: ADME, organism-based; set-up: dose 10 mg/kg, route oral; details: rat
[10] = Ratio of drug level in cerebrospinal fluid to plasma at 10 mg/kg, po after 1.5 hrs; type: ADME, organism-based, CSF/Plasma; set-up: dose 10 mg/kg, route oral; details: rat
[11] = test system: Mus musculus; assay: Spontaneous locomotor activity in po dosed C57BL/6J mouse assessed as reversal of LY-354740-induced hypoactivity; type: functional
[12] = molecular target: Cytochrome P450 3A4 (Homo sapiens, UniProt P08684); assay: Inhibition of CYP3A4; type: ADME
Sequence of Cytochrome P450 3A4 (P08684 whole entry): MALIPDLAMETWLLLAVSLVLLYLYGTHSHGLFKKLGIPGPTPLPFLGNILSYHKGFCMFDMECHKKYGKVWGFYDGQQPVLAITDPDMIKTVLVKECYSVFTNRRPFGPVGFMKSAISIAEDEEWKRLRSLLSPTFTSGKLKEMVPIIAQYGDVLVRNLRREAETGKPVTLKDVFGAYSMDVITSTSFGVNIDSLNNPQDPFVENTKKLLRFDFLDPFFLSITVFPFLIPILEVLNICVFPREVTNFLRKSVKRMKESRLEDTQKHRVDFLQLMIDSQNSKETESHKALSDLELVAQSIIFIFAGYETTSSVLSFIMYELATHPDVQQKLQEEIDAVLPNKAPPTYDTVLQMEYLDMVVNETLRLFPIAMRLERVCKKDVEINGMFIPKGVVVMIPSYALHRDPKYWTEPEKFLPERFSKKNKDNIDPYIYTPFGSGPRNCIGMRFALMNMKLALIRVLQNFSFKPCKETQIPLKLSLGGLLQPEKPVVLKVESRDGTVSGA

[13] = Clearance in rat microsomes; type: ADME, Liver, Microsome

| SMILES | pIC50 [1] | pIC50 [2] | further results |
| --- | --- | --- | --- |
| O=C1CC(c2cccc(-n3ccnn3)c2)=Nc2ccc(C(F)F)cc2N1 | 6.22 | – | – |
| O=C1CC(c2cccc(-n3ccnn3)c2)=Nc2ccc(OCC(F)(F)F)cc2N1 | 7.15 | – | – |
| O=C1CC(c2cccc(-n3ccnc3)c2)=Nc2ccc(-c3cc(F)ccc3F)cc2N1 | 8.15 | 7.77 | – |
| O=C1CC(c2cccc(-n3ccnn3)c2)=Nc2ccc(-c3ccccc3F)cc2N1 | 7.80 | 7.43 | pIC50 [3]: 7.66; pIC50 [4]: 7.38; Activity [5]: inactive; Activity [6]: inactive; concentration at 1.5 h [7]: 1420 ng/mL; concentration at 1.5 h [8]: 1060 ng/mL; Kp at 1.5 h [9]: 0.9; Kp at 1.5 h [10]: 0.5; ED50 [11]: 3.3 mg/kg; pIC50 [12]: 5.37 |
| O=C1CC(c2cccc(-n3ccnn3)c2)=Nc2ccc(Br)cc2N1 | 6.89 | – | – |
| O=C1CC(c2cccc(-n3ccnc3)c2)=Nc2ccc(-c3ccccc3F)cc2N1 | 7.92 | 7.57 | pIC50 [3]: 7.96; pIC50 [4]: 7.48; concentration at 1.5 h [7]: 2660 ng/mL; concentration at 1.5 h [8]: 1340 ng/mL; Kp at 1.5 h [9]: 0.5; ED50 [11]: 12.5 mg/kg |
| O=C1CC(c2cccc(-n3ccnn3)c2)=Nc2ccc(C(F)(F)F)cc2N1 | 7.04 | – | – |
| O=C1CC(c2cccc(-n3ccnn3)c2)=Nc2ccc(-c3ccc(F)cc3)cc2N1 | 7.51 | 7.44 | – |
| O=C1CC(c2cccc(-n3ccnc3)c2)=Nc2cc(O)c(-c3ccccc3F)cc2N1 | 7.66 | – | pIC50 [3]: 7.46; pIC50 [4]: 6.91; CLint scaled [13]: 100 mL/min/kg |
| O=C1CC(c2cccc(-n3ccnc3)c2)=Nc2ccc(-c3cccc(F)c3)cc2N1 | 7.60 | – | – |
| CC(C)c1ccc2c(c1)NC(=O)CC(c1cccc(-n3ccnn3)c1)=N2 | 6.33 | – | – |
| O=C1CC(c2cccc(-n3ccnc3)c2)=Nc2ccc(Br)cc2N1 | 7.14 | – | – |
| O=C1CC(c2cccc(-n3ccnc3)c2)=Nc2ccc(C3CC3)cc2N1 | 6.68 | – | – |
| O=C1CC(c2cccc(-n3ccnn3)c2)=Nc2ccc(-c3cc(F)ccc3F)cc2N1 | 7.77 | 7.74 | – |
| O=C1CC(c2cccc(-n3ccnc3)c2)=Nc2ccc(-c3ccccc3)cc2N1 | 7.41 | 7.33 | – |
| O=C1CC(c2cccc(-n3ccnc3)c2)=Nc2ccc(-c3ccc(F)cc3)cc2N1 | 7.77 | 7.62 | pIC50 [3]: 6.52; pIC50 [4]: 7.77 |
| CCOc1cc2c(cc1C(F)(F)F)NC(=O)CC(c1cccc(-n3ccnn3)c1)=N2 | 8.15 | 7.47 | – |
| O=C1CC(c2cccc(-n3ccnc3)c2)=Nc2cc(O)c(C#Cc3ccc(F)cc3)cc2N1 | – | – | pIC50 [3]: 7.62 |
| O=C1CC(c2cccc(-n3ccnn3)c2)=Nc2ccc(Cl)cc2N1 | 7.22 | – | – |

Further lines, with some results ahead:

| pIC50 [1] | pIC50 [2] | SMILES | further results |
| --- | --- | --- | --- |
| 7.96 | 7.85 | CC(C)CN(C)c1cc2c(cc1C(F)(F)F)NC(=O)CC(c1cccc(-n3ccnn3)c1)=N2 | – |
| 8.05 | 7.28 | CN(C)c1cc2c(cc1C(F)(F)F)NC(=O)CC(c1cccc(-n3ccnc3)c1)=N2 | – |
| 8.05 | 7.41 | Cc1cc2c(cc1C(F)(F)F)NC(=O)CC(c1cccc(-n3ccnn3)c1)=N2 | – |
| 7.72 | 7.14 | CC(C)CNc1cc2c(cc1C(F)(F)F)NC(=O)CC(c1cccc(-n3ccnc3)c1)=N2 | – |
| 7.54 | 7.13 | COc1cc2c(cc1C(F)(F)F)NC(=O)CC(c1cccc(-n3ccnn3)c1)=N2 | – |
| 8.40 | 8.00 | CCc1cc2c(cc1C(F)(F)F)NC(=O)CC(c1cccc(-n3ccnc3)c1)=N2 | – |
| 7.37 | – | O=C1CC(c2cccc(-n3ccnc3)c2)=Nc2ccc(C(F)(F)F)cc2N1 | – |
| 7.92 | 7.72 | Cc1cc2c(cc1C(F)(F)F)NC(=O)CC(c1cccc(-n3ccnc3)c1)=N2 | – |
| 7.42 | 6.74 | CN(C)c1cc2c(cc1C(F)(F)F)NC(=O)CC(c1cccc(-n3ccnn3)c1)=N2 | – |
| 7.77 | 7.82 | O=C1CC(c2cccc(-n3ccnc3)c2)=Nc2cc(Cl)c(C(F)(F)F)cc2N1 | – |
| 7.57 | 6.94 | O=C1CC(c2cccc(-n3ccnn3)c2)=Nc2cc(Cl)c(C(F)(F)F)cc2N1 | – |
| 7.38 | 6.57 | CC(C)CNc1cc2c(cc1C(F)(F)F)NC(=O)CC(c1cccc(-n3ccnn3)c1)=N2 | – |
